Reference: patent US8686184B2, “Neprilysin inhibitors” (Theravance, Inc., priority 2011, dated 2014)

These compounds were tested against T1, human neprilysin (EC 3.4.24.11; NEP) (Homo sapiens, UniProt P08473) (assay: In vitro enzyme inhibition assay at human NEP (fluorogenic peptide substrate)). Settings: recombinant human NEP; 37° C.; substrate Mca-D-Arg-Arg-Leu-Dap-(Dnp)-OH 10 μM; values given as ranges; read-out: pKi values at human NEP (converted).
T1 construct: purchased R&D Systems, Minneapolis, Minn; 1182-ZN
Type: biochemical
Method: In vitro Assays for the Quantitation of Inhibitor Potencies at Human and Rat NEP, and Human ACE
The inhibitory activities of compounds at human and rat neprilysin (EC 3.4.24.11; NEP) and human angiotensin converting enzyme (ACE) were determined using in vitro assays as described below.
Recombinant human NEP and recombinant human ACE were obtained commercially (R&D Systems, Minneapolis, Minn., catalog numbers 1182-ZN and 929-ZN, respectively). The fluorogenic peptide substrate Mca-D-Arg-Arg-Leu-Dap-(Dnp)-OH (Medeiros et al. (1997) Braz. J. Med. Biol. Res. 30:1157-62; Anaspec, San Jose, Calif.) and Abz-Phe-Arg-Lys(Dnp)-Pro-OH (Araujo et al. (2000) Biochemistry 39:8519-8525; Bachem, Torrance, Calif.) were used in the NEP and ACE assays respectively.
The assays were performed in 384-well white opaque plates at 37° C. using the fluorogenic peptide substrates at a concentration of 10 μM in Assay Buffer (NEP: 50 mM HEPES, pH 7.5, 100 mM NaCl, 0.01% polyethylene glycol sorbitan monolaurate (Tween-20), 10 μM ZnSO4; ACE: 50 mM HEPES, pH 7.5, 100 mM NaCl, 0.01% Tween-20, 1 μM ZnSO4).
Test compounds were assayed over the range of concentrations from 10 μM to 20 pM. Test compounds were added to the enzymes and incubated for 30 minute at 37° C. prior to initiating the reaction by the addition of substrate. Reactions were terminated after 20 minutes of incubation at 37° C. by the addition of glacial acetic acid to a final concentration of 3.6% (v/v).
Plates were read on a fluorometer with excitation and emission wavelengths set to 320 nm and 405 nm, respectively Inhibition constants were obtained by nonlinear regression of the data using the equation (GraphPad Software, Inc., San Diego, Calif.): v=v0/[1+(I/K′)] where v is the reaction rate, v0 is the uninhibited reaction rate, I is the inhibitor concentration and K′ is the apparent inhibition constant.
Compounds of the invention were tested in this assay and found to have pKi values at human NEP as follows.

T1 sequence (P08473 52-750 limits assumed): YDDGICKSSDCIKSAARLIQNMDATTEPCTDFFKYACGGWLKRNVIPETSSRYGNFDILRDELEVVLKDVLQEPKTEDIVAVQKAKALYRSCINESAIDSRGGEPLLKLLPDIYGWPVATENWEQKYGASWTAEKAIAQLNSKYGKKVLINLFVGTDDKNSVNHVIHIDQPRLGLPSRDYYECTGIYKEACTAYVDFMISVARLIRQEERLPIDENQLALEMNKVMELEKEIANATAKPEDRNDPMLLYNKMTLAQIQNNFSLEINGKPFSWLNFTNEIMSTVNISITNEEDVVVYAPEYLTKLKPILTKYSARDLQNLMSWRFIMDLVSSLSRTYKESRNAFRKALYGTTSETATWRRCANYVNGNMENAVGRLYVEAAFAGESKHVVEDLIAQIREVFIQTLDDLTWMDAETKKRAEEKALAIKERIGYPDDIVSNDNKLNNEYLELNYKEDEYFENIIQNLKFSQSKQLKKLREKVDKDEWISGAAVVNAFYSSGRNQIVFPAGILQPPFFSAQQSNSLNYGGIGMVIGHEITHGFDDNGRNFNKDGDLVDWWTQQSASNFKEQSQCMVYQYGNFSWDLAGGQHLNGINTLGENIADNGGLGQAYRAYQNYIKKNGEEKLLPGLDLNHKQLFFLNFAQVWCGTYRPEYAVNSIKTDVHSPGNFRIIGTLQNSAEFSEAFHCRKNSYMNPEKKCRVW

Ki [nM]	Compound
≤ 1	O=C(CCCc1cc(F)ccc1C(=O)O)N[C@H](Cc1ccccc1Cl)[C@@H](O)C(=O)O [Example 2-1, 2-{3-[(1R,2R)-2-Carboxy-1-(2-chlorobenzyl)-2-hydroxy-ethylcarbamoyl]-propyl}-4-fluoro-benzoic acid]
≤ 1	O=C(N[C@H](Cc1ccccc1Cl)[C@@H](O)C(=O)O)c1cc(F)c(F)c(-c2ccccc2C(=O)O)c1 [Example 3, 5′-[(1R,2R)-2-Carboxy-1-(2-chlorobenzyl)-2-hydroxy-ethylcarbamoyl]-2′,3′-difluoro-biphenyl-2-carb oxylic Acid]
≤ 1	CCc1ccc(C(=O)N[C@H](Cc2ccccc2Cl)[C@@H](O)C(=O)O)cc1-n1c(=O)[nH]c2sc(C)cc2c1=O [Example 4, (2R,3R)-4-(2-Chlorophenyl)-3-[4-ethyl-3-(6-methyl-2,4-dioxo-1,4-dihydro-2H-thieno[2,3-d]pyrimidin-3-yl)-benzoylamino]-2-hydroxy-butyric Acid]
1.26 to 10	O=C(N[C@H](Cc1ccccc1Cl)[C@@H](O)C(=O)O)c1cc(F)cc(-c2ccccc2C(=O)O)c1 [Example 6-1, 5′-[(1R,2R)-2-Carboxy-1-(2-chlorobenzyl)-2-hydroxy-ethylcarbamoyl]-3′-fluoro-biphenyl-2-carboxylic acid]
≤ 1	O=C(N[C@H](Cc1ccccc1Cl)[C@@H](O)C(=O)O)c1cc(Cl)cc(-c2ccccc2C(=O)O)c1 [Example 6-2, 5′-[(1R,2R)-2-Carboxy-1-(2-chlorobenzyl)-2-hydroxy-ethylcarbamoyl]-3′-chloro-biphenyl-2-carboxylic acid]
≤ 1	O=C(N[C@H](Cc1ccccc1Cl)[C@@H](O)C(=O)O)c1ccc(Cl)c(-c2ccccc2C(=O)O)c1 [Example 6-3, 5′-[(1R,2R)-2-Carboxy-1-(2-chlorobenzyl)-2-hydroxy-ethylcarbamoyl]-2′-chloro-biphenyl-2-carboxylic acid]
1.26 to 10	O=C(N[C@H](Cc1ccccc1Cl)[C@@H](O)C(=O)O)c1cc(Cl)c(F)c(-c2ccccc2C(=O)O)c1 [Example 6-4, 5′-[(1R,2R)-2-Carboxy-1-(2-chlorobenzyl)-2-hydroxy-ethylcarbamoyl]-3′-chloro-2′-fluoro-biphenyl-2-carboxylic acid]
12.6 to 100	Cc1ccc(C(=O)N[C@H](Cc2ccccc2Cl)[C@H](O)C(=O)O)cc1-c1ccccc1C(=O)O [Example 6-5, 5′-[(1R,2S)-2-Carboxy-1-(2-chlorobenzyl)-2-hydroxy-ethylcarbamoyl]-2′-methyl-biphenyl-2-carboxylic acid]
≤ 1	Cc1ccc(C(=O)N[C@H](Cc2ccccc2Cl)[C@@H](O)C(=O)O)cc1-c1ccccc1C(=O)O [Example 6-6, 5′-[(1R,2R)-2-Carboxy-1-(2-chlorobenzyl)-2-hydroxy-ethylcarbamoyl]-2′-methyl-biphenyl-2-carboxylic acid]
12.6 to 100	COc1ccc(C(=O)N[C@H](Cc2ccccc2Cl)[C@@H](O)C(=O)O)cc1-c1ccccc1C(=O)O [Example 6-7, 5′-[(1R,2R)-2-Carboxy-1-(2-chlorobenzyl)-2-hydroxy-ethylcarbamoyl]-2′-methoxy-biphenyl-2-carboxylic acid]
1.26 to 10	Cc1cc(C(=O)N[C@H](Cc2ccccc2Cl)[C@@H](O)C(=O)O)ccc1-c1ccccc1C(=O)O [Example 6-8, 4′-[(1R,2R)-2-Carboxy-1-(2-chlorobenzyl)-2-hydroxy-ethylcarbamoyl]-2′-methyl-biphenyl-2-carboxylic acid]
1.26 to 10	O=C(N[C@H](Cc1ccccc1Cl)[C@@H](O)C(=O)O)c1ccc(-c2ccccc2C(=O)O)c(F)c1 [Example 6-9, 4′-[(1R,2R)-2-Carboxy-1-(2-chlorobenzyl)-2-hydroxy-ethylcarbamoyl]-2′-fluoro-biphenyl-2-carboxylic acid]
12.6 to 100	O=C(N[C@H](Cc1ccccc1Cl)[C@@H](O)C(=O)O)c1ccc(N2N=C(C(F)(F)F)CC2=O)cc1 [Example 6-14, (2R,3R)-4-(2-Chlorophenyl)-2-hydroxy-3-[4-(5-oxo-3-trifluoromethyl-4,5-dihydro-pyrazol-1-yl)-benzoylamino]-butyric acid]
1.26 to 10	CC1=NN(c2ccc(C(=O)N[C@H](Cc3ccccc3Cl)[C@H](O)C(=O)O)cc2)C(=O)C1 [Example 6-15, (2S,3R)-4-(2-Chlorophenyl)-2-hydroxy-3-[4-(3-methyl-5-oxo-4,5-dihydro-pyrazol-1-yl)-benzoylamino]-butyric acid]
1.26 to 10	CCc1ccc(C(=O)N[C@H](Cc2ccccc2Cl)[C@@H](O)C(=O)O)cc1N1N=C(C)CC1=O [Example 6-17, (2R,3R)-4-(2-Chlorophenyl)-3-[4-ethyl-3-(3-methyl-5-oxo-4,5-dihydro-pyrazol-1-yl)-benzoylamino]-2-hydroxy-butyric acid]
12.6 to 100	CC1=NN(Cc2ccc(C(=O)N[C@H](Cc3ccccc3Cl)[C@@H](O)C(=O)O)cc2)C(=O)C1 [Example 6-19, (2R,3R)-4-(2-Chlorophenyl)-2-hydroxy-3-[4-(3-methyl-5-oxo-4,5-dihydro-pyrazol-1-ylmethyl)-benzoylamino]-butyric acid]
12.6 to 100	Cc1nn(-c2ccc(C(=O)N[C@H](Cc3ccccc3)[C@@H](O)C(=O)O)cc2)c(C)c1Cl [Example 10-1, (2R,3R)-3-[4-(4-Chloro-3,5-dimethyl-pyrazol-1-yl)-benzoylamino]-2-hydroxy-4-phenyl-butyric acid]
12.6 to 100	O=C(N[C@H](Cc1ccccc1)[C@@H](O)C(=O)O)c1ccc(-n2cccn2)cc1 [Example 10-2, (2R,3R)-2-Hydroxy-4-phenyl-3-(4-pyrazol-1-yl-benzoylamino)-butyric acid]
12.6 to 100	O=C(N[C@H](Cc1ccccc1)[C@@H](O)C(=O)O)c1ccc(-n2ccc(C(F)(F)F)n2)cc1 [Example 10-3, (2R,3R)-2-Hydroxy-4-phenyl-3-[4-(3-trifluoromethyl-pyrazol-1-yl)-benzoylamino]-butyric acid]
12.6 to 100	Cc1cc(C)n(-c2ccc(C(=O)N[C@H](Cc3ccccc3)[C@@H](O)C(=O)O)cc2)n1 [Example 10-4, (2R,3R)-3-[4-(3,5-Dimethyl-pyrazol-1-yl)-benzoylamino]-2-hydroxy-4-phenyl-butyric acid]
12.6 to 100	Cc1cc(C)n(-c2cccc(C(=O)N[C@H](Cc3ccccc3)[C@@H](O)C(=O)O)c2)n1 [Example 10-5, (2R,3R)-3-[3-(3,5-Dimethyl-pyrazol-1-yl)-benzoylamino]-2-hydroxy-4-phenyl-butyric acid]
12.6 to 100	Cc1cc(C)n(-c2cc(C(=O)N[C@H](Cc3ccccc3)[C@@H](O)C(=O)O)ccc2F)n1 [Example 10-6, (2R,3R)-3-[3-(3,5-Dimethylpyrazol-1-yl)-4-fluorobenzoylamino]-2-hydroxy-4-phenyl-butyric acid]
12.6 to 100	Cc1cc(C)n(-c2cc(C(=O)N[C@H](Cc3ccccc3)[C@@H](O)C(=O)O)ccc2C)n1 [Example 10-7, (2R,3R)-3-[3-(3,5-Dimethylpyrazol-1-yl)-4-methylbenzoylamino]-2-hydroxy-4-phenyl-butyric acid]
12.6 to 100	Cc1ccc(C(=O)N[C@H](Cc2ccccc2)[C@@H](O)C(=O)O)cc1-n1ccc(C(=O)O)n1 [Example 10-8, 1-[5-((1R,2R)-1-Benzyl-2-carboxy-2-hydroxyethylcarbamoyl)-2-methyl-phenyl]-1H-pyrazole-3-carboxylic acid]
